Reference: patent US20170360795A1, “TREATMENT OF CANCERS USING PI3 KINASE ISOFORM MODULATORS” (INFINITY PHARMACEUTICALS, INC., priority 2013, published 2017)
“Also recorded” adds a separate entry of the source. Marks after values point to notes of the source that are not given here.

Columns and labels:
Ri-1 = assay: cellular growth inhibition assay (72 hour CTG), DLBCL; format: cell-based; details: Ri-1 (ABC)
[1] = embryo/fetal developmental toxicity study in rats; details: female, rat, in vivo, 35 mg/kg/day; pregnant rats, last day of dosing; read-out: mean AUCO24 hr at the NOAEL
[2] = test system: pPRAS40 and pS6 in CTCL cells; assay: western blotting in CTCL cell lines; format: cell-based
Procedure: (§1) MJ and HuT78 cells were grown in IMDM 20% FBS, and HH cells were grown in RPMI 10% FBS.
Cells were washed with fresh media and lysed by adding 1x SDS sample buffer, followed by sonication. After heating the sample at 95-100° C. for 5 minutes and cooling on ice, the sample was microcentrifuged and run on SDS-PAGE. The resulting samples were electrotransfereed to nitrocellulose or PVDF membrane. After washing, the membrane was incubated in blocking buffer for 1 hour at room temperature, followed by washing with TBS/T. The membrane and primary antibodies are then inclubated overnight at 4° C. The membrane was again washed with TBS/T, and incubated with appropriate HRP-conjugated secondary antibodies. For biotinylated primary antibodies, the membrane was incubated with HRP-Streptavidin in milk. Upon completion of the incubation, the membrane was washed with TBS/T and was subjected to detection using LumiGLO®.

[3] = Pharmacokinetics / absolute bioavailability, mouse; format: in vivo, BALB/c mouse; details: PO, 10 mg/kg, calculated using AUC0-last
hematologic malignancies = assay: Phase 1 dose-escalation study in hematologic malignancies: tumor response; format: in vivo, human; details: for responses: 8, 15 and 25 mg BID
WSU-DLCL-2 = assay: cellular growth inhibition assay, DLBCL; format: cell-based; details: WSU-DLCL-2 (GCB)
SU-DHL-6 = assay: cellular growth inhibition assay (72 hour CTG), DLBCL; format: cell-based; details: SU-DHL-6 (GCB)
[4] = test system: hemodynamic and electrocardiographic parameters; assay: Cardiovascular telemetry study; format: in vivo, cynomolgus monkey; details: up to 150 mg/kg
Text: Four non-naive, male monkeys implanted with radiotelemetry transmitters were utilized during the conduct of this study.

SU-DHL-4 = assay: cellular growth inhibition assay (72 hour CTG), DLBCL; format: cell-based; details: SU-DHL-4 (GCB)
hERG channel = hERG channel (Homo sapiens, UniProt Q12809); assay: In vitro hERG assay
Sequence of hERG channel (Q12809 whole entry): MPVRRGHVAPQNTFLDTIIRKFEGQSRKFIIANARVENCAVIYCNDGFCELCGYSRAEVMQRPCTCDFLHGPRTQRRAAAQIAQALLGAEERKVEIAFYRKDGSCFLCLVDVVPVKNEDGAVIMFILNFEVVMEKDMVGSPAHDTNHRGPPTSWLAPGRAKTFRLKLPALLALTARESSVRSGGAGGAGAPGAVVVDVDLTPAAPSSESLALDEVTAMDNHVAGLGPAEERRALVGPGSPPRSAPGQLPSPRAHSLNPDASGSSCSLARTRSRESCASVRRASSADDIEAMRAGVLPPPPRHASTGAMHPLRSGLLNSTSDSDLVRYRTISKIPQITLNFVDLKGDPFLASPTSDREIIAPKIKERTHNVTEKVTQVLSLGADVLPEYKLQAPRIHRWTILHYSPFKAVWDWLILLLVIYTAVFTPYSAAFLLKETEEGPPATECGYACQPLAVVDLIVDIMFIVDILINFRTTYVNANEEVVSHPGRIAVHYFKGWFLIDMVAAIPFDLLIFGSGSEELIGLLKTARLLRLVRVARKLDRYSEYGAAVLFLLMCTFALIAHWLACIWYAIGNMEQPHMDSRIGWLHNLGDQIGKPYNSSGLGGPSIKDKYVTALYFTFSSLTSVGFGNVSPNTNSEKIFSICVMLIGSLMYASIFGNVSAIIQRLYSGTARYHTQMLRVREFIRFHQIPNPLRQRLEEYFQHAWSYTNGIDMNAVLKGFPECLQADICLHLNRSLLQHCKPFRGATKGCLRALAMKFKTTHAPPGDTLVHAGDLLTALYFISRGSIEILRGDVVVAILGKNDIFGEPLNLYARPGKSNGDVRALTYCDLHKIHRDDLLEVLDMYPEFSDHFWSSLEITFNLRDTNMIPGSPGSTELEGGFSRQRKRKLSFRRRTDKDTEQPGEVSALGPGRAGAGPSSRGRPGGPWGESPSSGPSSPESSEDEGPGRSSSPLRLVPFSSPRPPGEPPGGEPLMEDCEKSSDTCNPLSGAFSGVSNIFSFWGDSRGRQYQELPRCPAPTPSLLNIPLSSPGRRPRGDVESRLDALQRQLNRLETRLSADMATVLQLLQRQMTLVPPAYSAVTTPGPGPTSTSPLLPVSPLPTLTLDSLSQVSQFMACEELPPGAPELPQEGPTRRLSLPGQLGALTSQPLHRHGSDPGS

[5] = clinical study in healthy adult subjects: safety; format: in vivo, human
serum biomarkers = assay: Serum biomarkers in patients, 28 day cycles; format: in vivo, human
[6] = Pharmacokinetics / absolute bioavailability, dog; format: in vivo, Beagle dog; details: PO, 5 mg/kg, calculated using 0.5 mg/kg IV dose as reference and AUC0-last
pPRAS40 = pPRAS40 level in HH, MJ, HuT78 cells; format: cell-based; details: FIG. 33, as compared to GS-1101
[7] = clinical study in healthy adult subjects: pharmacokinetics; format: in vivo, human
[8] = test system: PTEN wildtype cell lines (Molt-13 and Molt-16); assay: growth inhibition of T-ALL cells; format: cell-based
[9] = test system: CD63 expression on CCR3+ basophils; assay: ex vivo anti-FcεR1 basophil activation assay, healthy subjects; format: in vivo, human; details: single and multiple doses
[10] = in vivo rat micronucleus assay
HH cells = assay: CTCL cytotoxicity, 72 hours; format: cell-based
Procedure: as §1

human P-glycoprotein = target: T1, human P-glycoprotein (Homo sapiens, UniProt P08183); assay: Caco-2 cell monolayers: membrane permeability and P-glycoprotein interaction; format: in vitro ADME
T1 construct: assessed in vitro using Caco-2 cell monolayers; endogenous in cells; host or cells: Caco-2
T1 sequence (P08183 whole entry): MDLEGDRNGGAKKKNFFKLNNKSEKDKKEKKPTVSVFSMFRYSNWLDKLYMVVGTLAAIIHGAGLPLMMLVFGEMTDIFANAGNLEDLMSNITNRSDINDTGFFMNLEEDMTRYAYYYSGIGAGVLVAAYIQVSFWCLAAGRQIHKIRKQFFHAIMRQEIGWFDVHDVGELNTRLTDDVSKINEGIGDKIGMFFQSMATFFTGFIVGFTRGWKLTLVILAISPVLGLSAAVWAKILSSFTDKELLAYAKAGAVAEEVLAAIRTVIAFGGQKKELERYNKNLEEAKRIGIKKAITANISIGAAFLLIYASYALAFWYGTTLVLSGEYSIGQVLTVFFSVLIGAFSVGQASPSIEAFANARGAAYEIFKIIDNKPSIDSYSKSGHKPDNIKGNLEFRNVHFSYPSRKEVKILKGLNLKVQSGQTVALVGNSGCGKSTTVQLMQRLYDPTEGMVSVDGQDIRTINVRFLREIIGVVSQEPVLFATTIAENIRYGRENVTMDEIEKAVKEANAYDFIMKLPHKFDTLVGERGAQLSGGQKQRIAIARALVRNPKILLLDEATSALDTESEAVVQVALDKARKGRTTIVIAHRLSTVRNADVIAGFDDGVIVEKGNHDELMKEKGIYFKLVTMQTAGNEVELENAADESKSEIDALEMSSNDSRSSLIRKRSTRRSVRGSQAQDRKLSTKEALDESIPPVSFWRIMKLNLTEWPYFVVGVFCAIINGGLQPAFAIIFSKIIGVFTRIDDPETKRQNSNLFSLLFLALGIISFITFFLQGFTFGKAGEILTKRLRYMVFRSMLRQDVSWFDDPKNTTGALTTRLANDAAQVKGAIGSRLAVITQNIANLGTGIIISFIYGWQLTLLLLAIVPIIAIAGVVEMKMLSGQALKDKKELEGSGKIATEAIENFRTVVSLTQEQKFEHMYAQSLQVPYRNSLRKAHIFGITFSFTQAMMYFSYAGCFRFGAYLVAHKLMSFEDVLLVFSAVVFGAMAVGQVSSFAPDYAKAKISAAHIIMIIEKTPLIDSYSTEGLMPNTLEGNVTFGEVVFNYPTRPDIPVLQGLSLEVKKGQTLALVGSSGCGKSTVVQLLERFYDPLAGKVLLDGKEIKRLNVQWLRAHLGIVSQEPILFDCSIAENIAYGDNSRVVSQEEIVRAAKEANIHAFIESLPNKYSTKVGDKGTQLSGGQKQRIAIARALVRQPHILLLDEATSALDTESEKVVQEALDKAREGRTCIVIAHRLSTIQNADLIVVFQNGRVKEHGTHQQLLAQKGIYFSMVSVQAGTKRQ

[11] = embryo/fetal developmental toxicity study in rabbits; details: female, rabbit, in vivo, 75 mg/kg/day; pregnant rabbits, last day of dosing; read-out: mean AUCO24 hr at the NOAEL
PI3K γ = PI3K γ (Homo sapiens, UniProt P48736); assay: PK/PD: plasma concentration versus PI3K-γ inhibition; format: in vivo; details: PK/PD in patients
Sequence of PI3K γ (P48736 whole entry): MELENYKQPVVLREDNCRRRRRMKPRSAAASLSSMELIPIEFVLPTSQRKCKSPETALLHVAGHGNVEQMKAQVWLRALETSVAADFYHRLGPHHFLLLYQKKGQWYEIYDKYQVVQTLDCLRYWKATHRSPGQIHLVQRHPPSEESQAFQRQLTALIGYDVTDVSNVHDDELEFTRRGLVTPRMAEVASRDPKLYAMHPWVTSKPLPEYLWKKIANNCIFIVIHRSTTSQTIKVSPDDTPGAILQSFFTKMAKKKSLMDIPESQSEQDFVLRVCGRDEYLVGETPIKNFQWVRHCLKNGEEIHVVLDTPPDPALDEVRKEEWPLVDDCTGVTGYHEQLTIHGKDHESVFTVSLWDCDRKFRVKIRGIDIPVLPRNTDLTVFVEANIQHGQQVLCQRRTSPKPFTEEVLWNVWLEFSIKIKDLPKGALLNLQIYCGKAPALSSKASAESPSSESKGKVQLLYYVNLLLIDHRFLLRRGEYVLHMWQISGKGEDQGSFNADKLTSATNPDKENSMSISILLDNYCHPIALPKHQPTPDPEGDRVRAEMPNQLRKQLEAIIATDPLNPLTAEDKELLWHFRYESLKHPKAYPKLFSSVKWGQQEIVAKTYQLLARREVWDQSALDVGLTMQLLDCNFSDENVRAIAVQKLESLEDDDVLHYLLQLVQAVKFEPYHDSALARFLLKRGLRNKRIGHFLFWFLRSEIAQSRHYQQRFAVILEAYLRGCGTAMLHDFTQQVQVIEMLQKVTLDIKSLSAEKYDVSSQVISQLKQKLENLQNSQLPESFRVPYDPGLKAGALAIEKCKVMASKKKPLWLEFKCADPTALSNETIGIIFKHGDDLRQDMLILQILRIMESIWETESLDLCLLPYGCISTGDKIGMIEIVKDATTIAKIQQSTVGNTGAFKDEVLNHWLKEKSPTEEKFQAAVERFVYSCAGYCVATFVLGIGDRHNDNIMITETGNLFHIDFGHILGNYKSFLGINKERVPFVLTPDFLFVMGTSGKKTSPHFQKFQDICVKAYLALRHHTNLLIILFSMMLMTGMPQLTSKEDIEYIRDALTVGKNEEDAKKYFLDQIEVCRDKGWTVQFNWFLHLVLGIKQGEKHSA

CLL cells = assay: production of reactive oxygen species; format: cell-based; details: n=6
Text: (FIGS. 35 and 36). […] In addition, this direct inhibitory effect on CLL cells in the lymph nodes could lead to rapid and prolonged responses in cancer patients.

[12] = multiple doses for 2 weeks (n=36)

C[C@H](Nc1ncnc2[nH]cnc12)c1cc2cccc(Cl)c2c(=O)n1-c1ccccc1 [Compound 292]
sensitivity in cellular growth inhibition assay (Ri-1): more sensitive; also recorded: nanomolar (nM) range
AUC [1]: 62200 ng·h/mL
level of pPRAS40 ([2]; HH, HuT78 and MJ cells, western blotting): dose dependently reduced
pS6 ([2]; resistant MJ cells): not modulated
Foral [3]: 7i %
responders with response by first assessment (within about 2 months) (hematologic malignancies; B cell lymphoma, 16 out of 18 responders): 89%
Time to Response in Months Median (range) (hematologic malignancies; CLL/SLL (11 evaluable)): 2.9 (1.8, 5.6) Months
Best Observed Response: SD (hematologic malignancies; CLL/SLL (11 evaluable), four nodal responses): 4 ^c n
responses (hematologic malignancies; CLL/SLL): 2/3
Median Time to Response in Months (range) (hematologic malignancies; CTCL (T/E 10/4)): 1.7 (—) ^ Months
Time to Response in Months Median (range) (hematologic malignancies; HL (2 evaluable)): 1.7 (1.7, 1.7) Months
Median Time to Rsp in Months (Range) (hematologic malignancies; HL (T/E 3/3)): 1.7 Months
Time to Response in Months Median (range) (hematologic malignancies; MCL (3 evaluable)): 1.9 (1.9, 1.9) Months
Median Time to Rsp in Months (Range) (hematologic malignancies; MCL (T/E 9/6)): 1.8 (1.6-1.9) Months
Median Time to Response in Months (range) (hematologic malignancies; PTCL (T/E 7/5)): 2.3 (1.9-2.7) Months
patients with at least 50% tumor response (CT scans) (hematologic malignancies; T cell lymphoma (2 PTCL and 1 CTCL)): 33%
Time to Response in Months Median (range) (hematologic malignancies; T-Cell Lymphoma (6 evaluable)): 2.4 (1.8, 3.1) Months
Median Time to Response in Months (range) (hematologic malignancies; TCL Total (T/E 17/9)): 1.9 (1.7-2.7) Months
Time to Response in Months Median (range) (hematologic malignancies; iNHL (13 evaluable)): 1.8 (1.7, 2.8) Months
Median Time to Rsp in Months (Range) (hematologic malignancies; iNHL (T/E 26/19)): 1.8 (1.7-4.1) Months
responses (hematologic malignancies; iNHL): 1/2
IC50, cellular growth inhibition (WSU-DLCL-2): low micromolar (μM) range
sensitivity in cellular growth inhibition assay (SU-DHL-6): more sensitive; also recorded: nanomolar (nM) range
waveform abnormalities or arrhythmias [4]: no waveform abnormalities or arrhythmias
sensitivity in cellular growth inhibition assay (SU-DHL-4): more sensitive; also recorded: nanomolar (nM) range
Hill coefficient (hERG channel): 1.3
deaths and serious adverse events (SAEs) ([5]; healthy subjects): no deaths and no serious adverse events
headache (non-procedural AE) [5, 12]: 8%
myalgia (non-procedural AE) [5, 12]: 6%
nasopharyngitis (non-procedural AE) [5, 12]: 6%
largest change from baseline in QTcF ([5]; serial ECGs, all study groups): 37 ms
subjects with QTcF greater than 500 msec ([5]; serial ECGs, all study groups): No subject
tolerability ([5]; single doses up to 30 mg, multiple doses up to 10 mg daily for 14 days): well tolerated; also recorded: well-tolerated
levels of CLL biomarkers in serum (serum biomarkers; 25 mg BID): decrease
levels of T-cell lymphoma biomarkers in serum (serum biomarkers; 25 mg BID): decrease
levels of iNHL biomarkers in serum (serum biomarkers; 25 mg BID): decrease
levels of lymphoma biomarkers in serum (serum biomarkers; 25 mg BID): decrease
levels of CLL biomarkers in serum (serum biomarkers; 25 mg or 75 mg BID): decrease
levels of iNHL biomarkers in serum (serum biomarkers; 25 mg or 75 mg BID): decrease
Foral [6]: 97g'i %
level of pPRAS40 (pPRAS40): decrease
accumulation ([7]; 14 days of Q12 h oral administration): less than 2 fold
exposure versus dose ([7]; across the dose ranges evaluated): increased proportionally to dose
growth inhibition [8]: resistant
time of maximum reduction of basophil activation [9]: 1 hr post dose
reduction of basophil activation (CD63 expression) ([9]; all dose levels): dose-dependent reduction; also recorded: reduced in a dose-dependent manner
direct adverse effect in micronucleus assay [10]: no direct adverse effect
cytotoxicity, sensitivity (HH cells): more sensitive
cell membrane permeability (human P-glycoprotein): moderate
inhibition of active transport of other P-gp substrates (human P-glycoprotein): has the potential to inhibit the active transport of other P-gp substrates
AUC [11]: 66200 ng·h/mL
doses that increasingly suppress PI3K-γ (PI3K γ): ≥ 25 mg BID
production of reactive oxygen species (CLL cells): enhanced
